The IC50 is the concentration needed to halve the response being measured. Read a low IC50 as greater potency.

This passage reports IC50 results from patent US20160145247A1, “Aminomethyl-Biaryl Derivatives Complement Factor D inhibitors and uses thereof” (NOVARTIS AG, priority 2013, published 2016).

T1 sequence (P00746 26-253): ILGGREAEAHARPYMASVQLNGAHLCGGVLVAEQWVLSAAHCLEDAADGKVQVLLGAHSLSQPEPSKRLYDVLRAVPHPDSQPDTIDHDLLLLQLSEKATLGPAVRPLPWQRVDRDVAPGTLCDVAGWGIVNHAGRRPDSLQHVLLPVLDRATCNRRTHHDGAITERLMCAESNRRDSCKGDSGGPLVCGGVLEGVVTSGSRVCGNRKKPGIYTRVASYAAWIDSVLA

The assay has as its target T1, factor D (Homo sapiens, UniProt P00746).
T1 construct: made in house; host or cells: E. coli
Put plainly: factor D inhibition assay of Biological Example 2. The class given is biochemical.
For the molecule `Cc1ccc(NC(=O)c2cccc(-c3cc(F)cc(CN)c3)c2)c(CC(=O)O)c1` [Example 22-C, 2-(2-(3′-(aminomethyl)-5′-fluoro-[1,1′-biphenyl]-3-ylcarboxamido)-5-methylphenyl)acetic acid], 835 nM corresponded to half-maximal inhibition (IC50).
The figure for `NCc1cccc(-c2cccc(COc3ccccc3CC(=O)O)c2)c1Cl` [Example 142-B] is 77 nM; for `C[C@@H](N)c1cccc(-c2cc(COc3ccccc3CC(=O)O)cc(OCC(F)(F)F)c2)c1F` [Example 231-B, (R)-2-(2-((3′-(1-aminoethyl)-2′-fluoro-5-(2,2,2-trifluoroethoxy)-[1,1′-biphenyl]-3-yl)methoxy)phenyl)acetic acid] it is 11 nM; for `CNc1sc(-c2cc(F)cc(CN)c2)nc1C(=O)Nc1ccccc1CC(=O)O` [Example 31-B, 2-(2-(2-(3-(aminomethyl)-5-fluorophenyl)-5-(methylamino)thiazole-4-carboxamido)phenyl)acetic acid] it is 16 nM.
For `C[C@@H](N)c1cccc(-c2cc(COc3ccccc3CC(=O)O)cc(NCC3CCCC3)c2)c1F` [Example 216-D] the value was 2 nM.
The figure for `NCc1cc(-c2cc(COc3ccccc3CC(=O)O)cc(OC[C@H]3CCCO3)c2)ccn1` [Example 138-A] is 2 nM; for `NCc1cc(F)cc(-c2cc(NC3CCOC3)cc(C(=O)Nc3ccccc3CC(=O)O)c2)c1` (centres unmarked) [Example 79-B] it is 9 nM; for `N[C@H](CO)c1cc(F)cc(-c2cccc(COc3ccccc3CC(=O)O)c2)c1` [Example 190-A] it is 41 nM.
`NCc1cccc(-c2ccc(C(F)(F)F)c(COc3ccccc3CC(=O)O)c2)c1` [Example 165, 2-(2-((3′-(Aminomethyl)-4-(trifluoromethyl)-[1,1′-biphenyl]-3-yl)methoxy)phenyl)acetic acid] had an IC50 of 21 nM.
For `C[C@@H](N)c1cccc(-c2cc(COc3ccccc3CC(=O)O)cc(N(C)CCF)c2)c1F` [Example 216-L] the value was 24 nM; for `C[C@@H](N)c1cccc(-c2cc(COc3ccccc3CC(=O)O)cc(-c3cnn(C)c3)c2)c1F` [Example 230, (R)-2-(2-((3′-(1-aminoethyl)-2′-fluoro-5-(1-methyl-1H-pyrazol-4-yl)-[1,1′-biphenyl]-3-yl)methoxy)phenyl)acetic acid], 3 nM; for `N[C@H](CO)c1cccc(-c2cc(COc3ccccc3CC(=O)O)cc(C(O)C3CCCCC3)c2)c1` (mixture of isomers) [116-I a), 2-(2-((3′-((S)-1-amino-2-hydroxyethyl)-5-(cyclohexyl(hydroxy)methyl)-[1,1′-biphenyl]-3-yl)methoxy)phenyl)acetic acid], 13 nM.
Take `N[C@H](CO)c1cccc(-c2cccc(COc3ccccc3CC(=O)O)c2)c1F` [Example 142-E]: the IC50 was 8 nM.
The molecule `N[C@H](CO)c1cc(-c2cccc(COc3ccccc3CC(=O)O)c2)ccn1` [Example 142-G] gave an IC50 of 12 nM.
Take `NCc1cccc(-c2cccc(COc3ccccc3C(NC(=O)C3CC3c3ccccc3)C(=O)O)c2)c1` (single isomer, unassigned) [Example 297-B, 2-(2-((3′-(aminomethyl)-[1,1′-biphenyl]-3-yl)methoxy)phenyl)-2-(2-phenylcyclopropanecarboxamido)acetic acid]: inhibition was half-maximal at 6 nM (IC50).
For `COCCOc1cc(C(=O)Nc2ccccc2CC(=O)O)cc(-c2cccc(CN)c2)c1` [Example 72-B, 2-(2-(3′-(Aminomethyl)-5-(2-methoxyethoxy)-[1,1′-biphenyl]-3-ylcarboxamido)phenyl)acetic acid] the value was 58 nM; for `C[C@@H](N)c1cccc(-c2cc(COc3ccccc3CC(=O)O)cc(C(O)C(F)(F)F)c2)c1` (single isomer, unassigned) [116-H b) (tr = 4.6 min)], 15 nM; for `NCc1cc(F)cc(-c2cccc(COc3ccccc3CC(=O)O)c2)c1` [Example 187, 2-(2-((3′-(Aminomethyl)-5′-fluoro-[1,1′-biphenyl]-3-yl)methoxy)phenyl)acetic acid], 174 nM.
For `Cc1ccc(COc2ccccc2CC(=O)O)cc1-c1cccc(CN)c1F` [Example 149, 2-(2-((3′-(Aminomethyl)-2′-fluoro-6-methyl-[1,1′-biphenyl]-3-yl)methoxy)phenyl)acetic acid] the value was 44 nM; for `NCc1ccnc(-c2cccc(COc3ccccc3CC(=O)O)c2)n1` [Example 158-C, 2-(2-((3-(4-(Aminomethyl)pyrimidin-2-yl)benzyl)oxy)phenyl)acetic acid], 1790 nM; for `NCc1cc(F)cc(-c2cccc(C(=O)Nc3c(Cl)cccc3CC(=O)O)n2)c1` [Example 21-N], 138 nM.
For `NCc1cccc(-c2c[nH]c(C(=O)Nc3ccccc3CC(=O)O)n2)c1` [Example 47, 2-(2-(4-(3-(Aminomethyl)phenyl)-1H-imidazole-2-carboxamido)phenyl)acetic acid] the value was 1930 nM; for `C[C@@H](N)c1cccc(-c2cc(COc3ccccc3CC(=O)O)cc(OCC3CCCN3)c2)c1` (stereo partly drawn) [Example 267, 2-(2-((3′-((R)-1-aminoethyl)-5-(pyrrolidin-2-ylmethoxy)-[1,1′-biphenyl]-3-yl)methoxy)phenyl)acetic acid], 39 nM; for `C[C@@H](N)c1cccc(-c2cc(O)cc(COc3ccccc3CC(=O)O)c2)c1F` [Example 214-R], 7 nM.
`NCc1cc(F)cc(-c2cc(OC[C@@H]3CCCO3)cc(C(=O)Nc3ccccc3CC(=O)O)c2)c1` [Example 15-B, (S)-2-(2-(3′-(Aminomethyl)-5′-fluoro-5-((tetrahydrofuran-2-yl)methoxy)-[1,1′-biphenyl]-3-ylcarboxamido)phenyl)acetic acid] came in with an IC50 of 9 nM.
The figure for `N=C(N)c1cccc(-c2cccc(COc3ccccc3CC(=O)O)c2)c1` [Example 192-B, 2-(2-((3′-Carbamimidoyl-[1,1′-biphenyl]-3-yl)methoxy)phenyl)acetic acid] is 18 nM; for `C[C@@H](N)c1cccc(-c2cc(COc3ccccc3CC(=O)O)cc(OCc3ncn(C)n3)c2)c1F` [Example 214-K] it is 15 nM.
`C[C@H](N)c1cccc(-c2cc(COc3ccccc3CC(=O)O)cc(OCc3nccs3)c2)c1F` [Example 214-N] gave an IC50 of 5 nM.
`CC(=O)NC(C(=O)O)c1ccccc1OCc1cccc(-c2cccc(CN)c2)c1` (centres unmarked) [Example 296, 2-acetamido-2-(2-((3′-(aminomethyl)-[1,1′-biphenyl]-3-yl)methoxy)phenyl)acetic acid]: the IC50 worked out at 2410 nM.
For `NCc1cc(F)cc(-c2cc(C(=O)O)cc(C(=O)Nc3ccccc3CC(=O)O)c2)c1` [Example 95-B, 3′-(Aminomethyl)-5-((2-(carboxymethyl)phenyl)carbamoyl)-5′-fluoro-[1,1′-biphenyl]-3-carboxylic acid] the value was 2240 nM; for `NCc1cc(F)cc(-c2cc(C(=O)Nc3ccccc3CC(=O)O)cc(N3CCOCC3)c2)c1` [Example 77-B, 2-(2-(3′-(Aminomethyl)-5′-fluoro-5-morpholino-[1,1′-biphenyl]-3-ylcarboxamido)phenyl)acetic acid], 55 nM.
Regarding `C[C@@H](N)c1cccc(-c2cc(COc3ccccc3CC(=O)O)cc(NC[C@H]3CCCO3)c2)n1` [Example 225-C, 2-(2-((3-(6-((R)-1-aminoethyl)pyridin-2-yl)-5-((((R)-tetrahydrofuran-2-yl)methyl)amino)benzyl)oxy)phenyl)acetic acid], the IC50 stood at 16 nM.
The figure for `C[C@@H](N)c1cccc(-c2cc(COc3ccccc3CC(=O)O)cc(S(C)(=O)=O)c2)c1F` [Example 250-D, (R)-2-(2-((3′-(1-aminoethyl)-2′-fluoro-5-(methylsulfonyl)-[1,1′-biphenyl]-3-yl)methoxy)phenyl)acetic acid] is 113 nM; for `NCc1ccnc(-c2cc(COc3ccccc3CC(=O)O)cc(OC[C@H]3CCCO3)c2)c1` [Example 138-B] it is 88 nM.
For `NCc1cccc(-c2cc(COc3ccccc3CC(=O)O)c3cn[nH]c3c2)c1` [Example 179, 2-(2-((6-(3-(Aminomethyl)phenyl)-1H-indazol-4-yl)methoxy)phenyl)acetic acid] the value was 4 nM; for `C[C@@H](N)c1cccc(-c2cc(NCC3CC3)c3c(c2)C(Oc2ccccc2CC(=O)O)CCC3)c1F` (some centres unmarked) [Example 216-Z], 13 nM; for `C[C@@H](N)c1cccc(-c2cccc(N(C)Cc3ccccc3CC(=O)O)c2)c1F` [Example 220-D, (R)-2-(2-(((3′-(1-aminoethyl)-2′-fluoro-[1,1′-biphenyl]-3-yl)(methyl)amino)methyl)phenyl)acetic acid], 44 nM.
For `O=C(O)Cc1ccccc1OCc1cccc(-c2cccc(C3CCCN3)c2)c1` (centres unmarked) [Example 138-J] the value was 2870 nM.
Regarding `Cc1cc(Nc2cc(C(=O)Nc3ccccc3CC(=O)O)cc(-c3cc(F)cc(CN)c3)c2)[nH]n1` [Example 79-H], the 50% inhibitory concentration (IC50) turned out to be 17 nM.
In the case of `CCc1cc(COc2ccccc2CC(=O)O)cc(-c2cccc([C@H](N)CO)c2)c1` [Example 110-C, (S)-2-(2-((3′-(1-Amino-2-hydroxyethyl)-5-ethyl-[1,1′-biphenyl]-3-yl)methoxy)phenyl)acetic acid], the IC50 is 30 nM.
The figure for `C[C@@H](N)c1cccc(-c2cc(OC[C@@H]3CCCO3)cc(C(=O)Nc3ccccc3CC(=O)O)c2)c1` [Example 80-C, 2-(2-(3′-((R)-1-Aminoethyl)-5-(((S)-tetrahydrofuran-2-yl)methoxy)-[1,1′-biphenyl]-3-ylcarboxamido)phenyl)acetic acid] is 143 nM; for `N#CC[C@@H](N)c1cccc(-c2cccc(COc3ccccc3CC(=O)O)c2)c1` [Example 196-E] it is 272 nM.
`CNC(CO)c1cccc(-c2cccc(COc3ccccc3CC(=O)O)c2)c1` (racemic) [Example 171, (±)-2-(2-((3′-(2-Hydroxy-1-(methylamino)ethyl)-[1,1′-biphenyl]-3-yl)methoxy)phenyl)acetic acid]: the IC50 is 2540 nM.
The molecule `NCc1cccc(-c2cc(O)cc(C(=O)Nc3ccccc3CC(=O)O)n2)c1` [Example 55, 2-(2-(6-(3-(Aminomethyl)phenyl)-4-hydroxypicolinamido)phenyl)acetic acid] came in with an IC50 of 13 nM.
